{"source": "patent US9579406B2", "about": "“Phospholipid ether analogs as agents for detecting and locating cancer, and methods thereof” (Cellectar, Inc., priority 2004, dated 2017)", "experiment_in_all_cases": "Tumor models examined with NM404 (Table 2)", "assay_type_in_all_cases": "in vivo, Nude Mouse", "key": {"[1]": {"tested_on": "Lung NCI H-69 (Oat Cell)", "conditions": "Small cell carcinoma", "text": "(§1) NM404 has now been evaluated in 27 animal tumor models, including several lung, and it is clear that once the agent enters tumor cells, it reaches a metabolic dead end and becomes trapped. […] NM404 is also retained in spontaneous murine lung tumors (FIG. 13). Using ^125I-labeled NM404, the inventors have been able to image mammary and prostate tumors in mice in excess of 60 days. […] Imaging and tissue distribution studies performed in mouse models aimed at determining the uptake characteristics in a wide variety of tumor models are summarized in Table 2.\n(§2) Although tumor retention can be explained by a lack of metabolic phospholipase enzymes in the tumor cell membranes, the exact mechanism of tumor cell uptake is unknown. […] The inventors are currently evaluating the selectivity of NM404 in a unique mouse tumor model developed at Wisconsin, wherein both preneoplastic hyperplasias and malignant adenocarcinomas form spontaneously in the mammary gland. […] If this initial observation is validated, then via genomic and or proteomic analysis the inventors may be able to identify a key genetic difference between malignant tumors and their non malignant predecessor cells. This could identify a completely new molecular therapeutic target that may be universal for all types of cancer."}, "[2]": {"tested_on": "Melanoma A-375", "text": "as §1, §2"}, "[3]": {"tested_on": "Ovarian HTB-77", "conditions": "Adenocarcinoma", "text": "as §1, §2"}}, "data": [{"smiles": "C[N+](C)(C)CCOP(=O)([O-])OCCCCCCCCCCCCCCCCCCc1ccc(I)cc1", "note": "[NM-404, 18-(4-iodophenyl)-octadecylphosphocholine]", "values": [{"measurement": "NM404 Tumor Localization", "setting": "[1]", "result": "Yes (Localization defined as >5% injected dose per gram tumor basis based on tissue distribution data)"}, {"measurement": "NM404 Tumor Localization", "setting": "[2]", "result": "Yes (Localization defined as >5% injected dose per gram tumor basis based on tissue distribution data)"}, {"measurement": "NM404 Tumor Localization", "setting": "[3]", "result": "Yes (Localization defined as >5% injected dose per gram tumor basis based on tissue distribution data)"}]}]}
